Data reported in patent US20080108612A1, “Use of Purine Derivatives as HSP90 Protein Inhibitors” (AVENTIS PHARMA S.A., priority 2005, published 2008).
Structures can show the parent of a compound that is named as a salt.

Target: Hsp82 (Saccharomyces cerevisiae, UniProt P02829)
Sequence (P02829 whole entry): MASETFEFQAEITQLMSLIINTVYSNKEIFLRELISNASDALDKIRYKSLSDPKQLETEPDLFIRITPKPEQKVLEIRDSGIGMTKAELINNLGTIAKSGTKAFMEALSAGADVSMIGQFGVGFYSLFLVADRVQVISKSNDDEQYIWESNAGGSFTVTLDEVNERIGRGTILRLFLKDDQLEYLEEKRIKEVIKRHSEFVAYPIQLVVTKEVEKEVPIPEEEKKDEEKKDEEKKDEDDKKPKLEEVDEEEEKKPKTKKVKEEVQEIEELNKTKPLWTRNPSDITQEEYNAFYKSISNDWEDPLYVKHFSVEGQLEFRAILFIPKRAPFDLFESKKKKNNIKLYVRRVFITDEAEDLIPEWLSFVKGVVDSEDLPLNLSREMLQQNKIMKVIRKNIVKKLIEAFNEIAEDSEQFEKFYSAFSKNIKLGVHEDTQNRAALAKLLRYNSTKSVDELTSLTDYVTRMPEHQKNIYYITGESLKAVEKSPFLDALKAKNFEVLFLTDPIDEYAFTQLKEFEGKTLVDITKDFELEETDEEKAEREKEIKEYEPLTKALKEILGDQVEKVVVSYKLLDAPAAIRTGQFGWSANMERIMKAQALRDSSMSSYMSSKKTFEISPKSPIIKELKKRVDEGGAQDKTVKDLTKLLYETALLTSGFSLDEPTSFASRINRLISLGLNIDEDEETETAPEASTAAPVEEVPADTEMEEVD
Assay: Inhibition of the ATPase activity of Hsp82 in the enzymatic coupling system (pyruvate kinase / lactate dehydrogenase)
Format: biochemical
Conditions: not given
Excerpt: The formation of ADP due to the ATPase activity of Hsp82 was used to develop another method for evaluating the enzymatic activity of this enzyme by application of an enzymatic coupling system involving pyruvate kinase (PK) and lactate dehydrogenase (LDH). In this kinetic-type spectrophotometric method, the PK catalyzes the formation of ATP and of pyruvate from phosphoenol pyruvate (PEP) and from the ADP produced by Hsp82. The pyruvate formed, which is a substrate for LDH, is then converted to lactate in the presence of NADH. In this case, the decrease in NADH concentration, measured by the decrease in absorbance at the wavelength of 340 nm, is proportional to the concentration of ADP produced by Hsp82.
The products tested were incubated in a reaction volume of 100 μl of buffer composed of 100 mM Hepes-NaOH (pH 7.5), 5 mM MgCl2, 1 mM DTT, 150 mM KCl, 0.3 mM NADH, 2.5 mM PEP and 250 μM ATP. This mixture was preincubated at 37° C. for 30 min before adding 3.77 units of LDH and 3.77 units of PK. The reaction was initiated by addition of the product to be evaluated, in variable concentrations, and of Hsp82, at the concentration of 1 μM. Measurement of the enzymatic activity of Hsp82 was then carried out, continuously, in a microplate reader at 37° C., at the wavelength of 340 nm. The initial rate of the reaction was obtained by measuring the slope of the tangent at the origin of the curve recorded. The enzymatic activity was expressed in μM of ADP formed per minute. The effect of the various products tested was expressed as a percentage inhibition of the ATPase activity.
The inhibitory activities on the ATPase activity of Hsp82 obtained with the products of the invention in the enzymatic coupling system are given in the table below, according to the criteria below for inhibition of the ATPase activity of Hsp82: […]
For `CC(Nc1nc(Cl)nc2[nH]cnc12)c1ccccc1` (racemic) [Example 3, 2-chloro-6-(1(R,S)-phenylethyl)amino-1H-purine], the IC50 was 10 to 100 µM.

Same assay, conditions: ATPase activity of Hsp82, PK/LDH enzymatic coupling system, 1 μM Hsp82, 250 μM ATP, 37° C., absorbance at 340 nm; read-out: IC50
For `Cl.c1ccc(CN2CCN(c3ncnc4[nH]cnc34)CC2)cc1` [Example 1], the IC50 was 1 to 10 µM. `Clc1nc(OCc2ccccc2)c2nc[nH]c2n1` [Example 2, 2-chloro-6-phenylmethyloxy-1H-purine] gave an IC50 of 10 to 100 µM. For `Clc1nc(NCCN2CCOCC2)c2nc[nH]c2n1` [Example 4, 2-chloro-6-[2-(morpholin-4-yl)ethylamino]-1H-purine], the IC50 was 10 to 100 µM. Work on `c1csc(CNc2[nH]cnc3ncnc2-3)c1` [Example 5, 6-(thiophen-2-yl)methylamino-1H-purine] yielded an IC50 of 10 to 100 µM. With `Clc1nc(NCCNCc2ccccc2)c2nc[nH]c2n1` [Example 6] the IC50 was 10 to 100 µM. Compound `CCOC(=O)CC1CCN(c2ncnc3[nH]cnc23)CC1` [Example 8, 6-[4-(ethyloxycarbonyl)methylpiperidin-1-yl]-1H-purine] has an IC50 of 10 to 100 µM. In the case of `c1nc(N2CCCCC2)c2nc[nH]c2n1` [Example 9, 6-(piperidin-1-yl)-1H-purine], the IC50 is reported as 1 to 10 µM. With `c1ccc(N2CCN(c3ncnc4[nH]cnc34)CC2)nc1` [Example 10, 6-[4-(pyridin-2-yl)piperazinyl]-1-H-purine monohydrochloride] the IC50 was 1 to 10 µM.

Tested on: not given
Assay: not given
Conditions: not given
With `Cl.c1ccc(CN2CCN(c3ncnc4[nH]cnc34)CC2)cc1` [Example 1] the melting point was 258 to 260 °C.
